This note sets out measurements from patent US6613772B1, “Substituted 2-aryl-4-amino-chinazolines, method for the production and use thereof as medicaments” (Aventis Pharma Deutschland GmbH, priority 1997, dated 2003).

Structures are written as SMILES.

For orientation: melting point means the temperature of the solid-liquid transition. Regarding `COc1cc2c(NCCO)nc(-c3ccc(Cl)cc3)nc2c(OC)c1OC` [Example 57, 2-(4-Chlorophenyl)-4-(2-hydroxyethylamino)-6,7,8-trimethoxyquinazoline], the melting point is 202 °C.

The compound `COc1cc2nc(-c3ccc(C)cc3)nc(NCc3cccc([N+](=O)[O-])c3)c2cc1OC` [Example 72, 2-(4-Methylphenyl)-4-((3-nitrophenylmethyl)amino)-6,7-dimethoxyquinazoline] showed a melting point of 250 °C.

For the compound `COc1cc2c(N3CCOCC3)nc(-c3cc(C(F)(F)F)cc(C(F)(F)F)c3)nc2c(OC)c1OC` [Example 64, 2-(3,5-Bistrifluoromethylphenyl)-4-morpholino-6,7,8-trimethoxyquinazoline], the melting point was found to be 170 °C.

For `COc1cccc(CNc2nc(-c3ccc(C)cc3)nc3cc(OC)c(OC)cc23)c1.Cl`, the melting point was found to be 278 °C.

Compound `COc1cc2nc(-c3ccc(C(F)(F)F)cc3)nc(N3CCOCC3)c2cc1OC` [Example 50, 2-(4-Trifluoromethylphenyl)-4-morpholino-6,7-dimethoxyquinazoline] returned a melting point of 207 °C.

Compound `COc1cc2nc(-c3ccc(Cl)cc3)nc(NCCCn3ccnc3)c2cc1OC` [Example 21, 2-(4-Chlorophenyl)-4-(3-(1-imidazolyl)propylamino)-6,7-dimethoxyquinazoline] registered a melting point of 242 °C.

Turning to `COc1cc2nc(-c3ccc(Cl)cc3)nc(N3CCSCC3)c2cc1OC` [Example 74, 2-(4-Chlorophenyl)-4-thiomorpholino-6,7-dimethoxyquinazoline], the melting point came out at 214 °C.

With `COc1cc2nc(-c3ccc(C)cc3)nc(NCCN(C(C)C)C(C)C)c2cc1OC` [Example 40, 2-(4-Methylphenyl)-4-(2-diisopropylaminoethylamino)-6,7-dimethoxyquinazoline], the melting point is 81 °C.

As for `COc1cc2nc(-c3ccc(C)cc3)nc(N3CCSCC3)c2cc1OC` [Example 75, 2-(4-Methylphenyl)-4-thiomorpholino-6,7-dimethoxyquinazoline], the melting point stood at 213 °C.

For `COc1cc2nc(-c3ccc(C)cc3)nc(NCc3ccncc3)c2cc1OC` [Example 51, 2-(4-Methylphenyl)-4-((4-pyridylmethyl)amino)-6,7-dimethoxyquinazoline], the melting point is 208 °C.

`COc1cc2nc(-c3ccc(C)cc3)nc(N3CCOCC3)c2cc1OC` [Example 49, 2-(4-Methylphenyl)-4-morpholino-6,7-dimethoxyquinazoline] showed a melting point of 200 °C.

In the case of `COCCCNc1nc(-c2ccc(Cl)cc2)nc2cc(OC)c(OC)cc12` [Example 86, 2-(4-Chlorophenyl)-4-(3-methoxypropylamino)-6,7-dimethoxyquinazoline], the melting point was found to be 240 °C.

In the case of `COc1cc2c(N3CCOCC3)nc(-c3ccc(Cl)cc3)nc2c(OC)c1OC` [Example 55, 2-(4-Chlorophenyl)-4-morpholino-6,7,8-trimethoxyquinazoline], the melting point was found to be 153 °C.

In the case of `COc1cc2c(NCc3cccnc3)nc(-c3ccc(Cl)cc3)nc2c(OC)c1OC` [Example 54, 2-(4-Chlorophenyl)-4-((3-pyridylmethyl)amino)-6,7,8-trimethoxyquinazoline], the melting point is 262 °C.

`COc1cc2nc(-c3ccc(C)cc3)nc(N3CC(C)OC(C)C3)c2cc1OC` (stereo not drawn) [Example 83, 2-(4-Methylphenyl)-4-(2,6-dimethylmorpholino)-6,7-dimethoxyquinazoline] gave a melting point of 177 °C.

Regarding `COCCCNc1nc(-c2ccc(C)cc2)nc2cc(OC)c(OC)cc12` [Example 84, 2-(4-Methylphenyl)-4-(3-methoxypropylamino)-6,7-dimethoxyquinazoline], the melting point was 162 °C.

On to `COc1cc2nc(-c3ccc(Cl)cc3)nc(N3CCCCCC3)c2cc1OC` [Example 89, 2-(4-Chlorophenyl)-4-hexamethyleneimino-6,7-dimethoxyquinazoline], for which the melting point is 189 °C.

`COc1cc2c(N3CCN(C)CC3)nc(-c3cc(C(F)(F)F)cc(C(F)(F)F)c3)nc2c(OC)c1OC` [Example 62, 2-(3,5-Bistrifluoromethylphenyl)-4-(4-methylpiperazino)-6,7,8-trimethoxyquinazoline] had a melting point of 176 °C.

`COCCNc1nc(-c2ccc(Cl)cc2)nc2c(OC)c(OC)c(OC)cc12` [Example 58, 2-(4-Chlorophenyl)-4-(2-methoxyethylamino)-6,7,8-trimethoxyquinazoline] displayed a melting point of 165 °C.

In turn, `COc1cc2nc(-c3ccc(C)cc3)nc(N(C)Cc3cccnc3)c2cc1OC` [Example 97, 2-(4-Methylphenyl)-4-(N-methyl-N-(3-pyridylmethyl)amino)-6,7-dimethoxyquinazoline] came in with a melting point of 165 °C.

For the compound `COc1cc2c(NCCO)nc(-c3ccc(Cl)cc3)nc2c(OC)c1OC.Cl`, the melting point was 202 °C.

Take `COc1cc2c(N3CCS(=O)(=O)CC3)nc(-c3ccc(Cl)cc3)nc2c(OC)c1OC` [Example 69, 2-(4-Chlorophenyl)-4-(1,1-dioxothiomorpholino)-6,7,8-trimethoxyquinazoline]: the melting point was found to be 241 °C.

For the compound `COc1cc2nc(-c3ccc(Cl)cc3)nc(NC3CCN(Cc4ccccc4)CC3)c2cc1OC` [Example 22, 2-(4-Chlorophenyl)-4-((1-benzylpiperidin-4-yl)amino)-6,7-dimethoxyquinazoline], the melting point was determined as 252 °C.

`COc1ccccc1CCNc1nc(-c2ccc(C)cc2)nc2cc(OC)c(OC)cc12` [Example 73, 2-(4-Methylphenyl)-4-(2-(2-methoxyphenyl)ethylamino)-6,7-dimethoxyquinazoline] yielded a melting point of 205 °C.

`COc1cc2c(N3CCN(c4ccccn4)CC3)nc(-c3ccc(Cl)cc3)nc2c(OC)c1OC` [Example 78, 2-(4-Chlorophenyl)-4-(4-(2-pyridyl)piperazino)-6,7,8-trimethoxyquinazoline] yielded a melting point of 141 °C.

Regarding `COc1cccc(CCNc2nc(-c3ccc(C)cc3)nc3cc(OC)c(OC)cc23)c1.Cl`, the melting point was found to be 256 °C.

`COc1cc2nc(-c3ccc(Cl)cc3)nc(N3C[C@@H](C)O[C@@H](C)C3)c2cc1OC` [Example 90, 2-(4-Chlorophenyl)-4-(cis-2,6-dimethylmorpholino)-6,7-dimethoxyquinazoline] gave a melting point of 223 °C.

The compound `COc1cc2c(NCc3cccnc3)nc(-c3cc(C(F)(F)F)cc(C(F)(F)F)c3)nc2c(OC)c1OC` [Example 65, 2-(3,5-Bistrifluoromethylphenyl)-4-((3-pyridylmethyl)amino)-6,7,8-trimethoxyquinazoline] gave a melting point of 229 °C.

Compound `COc1cc2nc(-c3ccc(C(F)(F)F)cc3)nc(N3CCN(C)CC3)c2cc1OC` [Example 45, 2-(4-Trifluoromethylphenyl)-4-(4-methylpiperazino)-6,7-dimethoxyquinazoline] registered a melting point of 139 °C.

For `COc1cc2nc(-c3ccc(Cl)cc3)nc(N3CCOCC3)c2cc1OC` [Example 48, 2-(4-Chlorophenyl)-4-morpholino-6,7-dimethoxyquinazoline], the melting point is 178 °C.

For `COc1cc2nc(-c3ccc(C)cc3)nc(NCc3ccccn3)c2cc1OC` [Example 52, 2-(4-Methylphenyl)-4-((2-pyridylmethyl)amino)-6,7-dimethoxyquinazoline], the melting point came out at 196 °C.

As for `COc1cc2nc(-c3ccc(Cl)cc3)nc(N3CCC(C(N)=O)CC3)c2cc1OC` [Example 88, 2-(4-Chlorophenyl)-4-(4-aminocarbonylpiperidino)-6,7-dimethoxyquinazoline], the melting point was 225 °C.

The compound `COc1cc2nc(-c3ccc(Cl)cc3)nc(NCCCN3CCCC3=O)c2cc1OC` [Example 27, 2-(4-Chlorophenyl)-4-(3-(2-oxopyrrolidino)propylamino)-6,7-dimethoxyquinazoline] had a melting point of 210 °C.

Turning to `COc1cc2nc(-c3ccc(Cl)cc3)nc(NC3CC(C)(C)NC(C)(C)C3)c2cc1OC` [Example 26, 2-(4-Chlorophenyl)-4-((2,2,6,6-tetramethylpiperidin-4-yl)amino)-6,7-dimethoxyquinazoline], the melting point turned out to be 231 °C.

In turn, `CCCN(CCC)c1nc(-c2ccc(Cl)cc2)nc2c(OC)c(OC)c(OC)cc12` [Example 80, 2-(4-Chlorophenyl)-4-dipropylamino-6,7,8-trimethoxyquinazoline] gave a melting point of 109 °C.

`COc1cc2nc(-c3ccc(Cl)cc3)nc(N(C)CCO)c2cc1OC` [Example 41, 2-(4-Chlorophenyl)-4-(N-(2-hydroxyethyl)-N-methylamino)-6,7-dimethoxyquinazoline]: the melting point was 129 °C.

For the compound `COc1cc2nc(-c3ccc(Cl)cc3)nc(NCCc3ccc(Oc4ccccc4)cc3)c2cc1OC` [Example 46, 2-(4-Chlorophenyl)-4-(2-(4-phenoxyphenyl)ethylamino)-6,7-dimethoxyquinazoline], the melting point was 216 °C.

The compound `COc1cc2nc(-c3ccc(C)cc3)nc(NCCc3ccccn3)c2cc1OC` [Example 53, 2-(4-Methylphenyl)-4-((2-(2-pyridyl)ethyl)amino)-6,7-dimethoxyquinazoline] returned a melting point of 204 °C.

`COc1cc2c(N3CC[S+]([O-])CC3)nc(-c3ccc(Cl)cc3)nc2c(OC)c1OC` [Example 68, 2-(4-Chlorophenyl)-4-(1-oxothiomorpholino)-6,7,8-trimethoxyquinazoline] yielded a melting point of 198 °C.

`CCCN(CCC)c1nc(-c2cc(C(F)(F)F)cc(C(F)(F)F)c2)nc2c(OC)c(OC)c(OC)cc12` [Example 82, 2-(3,5-Bistrifluoromethylphenyl)-4-dipropylamino-6,7,8-trimethoxyquinazoline] gave a melting point of 121 °C.

Compound `COc1ccccc1N1CCN(c2nc(-c3ccc(Cl)cc3)nc3c(OC)c(OC)c(OC)cc23)CC1` [Example 10, 2-(4-Chlorophenyl)-4-(4-(2-methoxyphenyl)piperazino)-6,7,8-trimethoxyquinazoline] displayed a melting point of 157 °C.

`COc1cc2nc(-c3ccc(Cl)cc3)nc(N3CC[S+]([O-])CC3)c2cc1OC` [Example 76, 2-(4-Chlorophenyl)-4-(1-oxothiomorpholino)-6,7-dimethoxyquinazoline] gave a melting point of 226 °C.
